Consider 13 compounds from patent publication US6610738B2, “N-disubstituted carbamoyloxy flavones” (priority 2000, dated 2003).

Each structure is given as a SMILES string. pIC50: −log10 of the molar value.

The test system of the first data set is acetylcholine esterase. Description: AChE inhibition ex vivo (Table II). The format is in vivo. The following applies: at 40 μM/kg.
Take `CN(C)C(=O)Oc1ccccc1-c1cc(=O)c2ccccc2o1`: the “AchE inhibition Ex vivo” value stood at 29% at 40 μM/kg.
The same measure, in the same setting: next, `CN(C)C(=O)Oc1cccc(-c2cc(=O)c3ccccc3o2)c1`: 42% at 40 μM/kg.

The same data set, now with this note: at 50 μM/kg.
Turning to `CCN(C)C(=O)Oc1ccccc1-c1cc(=O)c2ccccc2o1`, the “AchE inhibition Ex vivo” value is given as 14% at 50 μM/kg.

For a further data set, the target named is acetylcholine esterase (Homo sapiens, UniProt P22303). Description: biochemical. The following applies: read-out: AchE inhibition IC50 (5′).
acetylcholine esterase (Homo sapiens, UniProt P22303), sequence (P22303 32-614): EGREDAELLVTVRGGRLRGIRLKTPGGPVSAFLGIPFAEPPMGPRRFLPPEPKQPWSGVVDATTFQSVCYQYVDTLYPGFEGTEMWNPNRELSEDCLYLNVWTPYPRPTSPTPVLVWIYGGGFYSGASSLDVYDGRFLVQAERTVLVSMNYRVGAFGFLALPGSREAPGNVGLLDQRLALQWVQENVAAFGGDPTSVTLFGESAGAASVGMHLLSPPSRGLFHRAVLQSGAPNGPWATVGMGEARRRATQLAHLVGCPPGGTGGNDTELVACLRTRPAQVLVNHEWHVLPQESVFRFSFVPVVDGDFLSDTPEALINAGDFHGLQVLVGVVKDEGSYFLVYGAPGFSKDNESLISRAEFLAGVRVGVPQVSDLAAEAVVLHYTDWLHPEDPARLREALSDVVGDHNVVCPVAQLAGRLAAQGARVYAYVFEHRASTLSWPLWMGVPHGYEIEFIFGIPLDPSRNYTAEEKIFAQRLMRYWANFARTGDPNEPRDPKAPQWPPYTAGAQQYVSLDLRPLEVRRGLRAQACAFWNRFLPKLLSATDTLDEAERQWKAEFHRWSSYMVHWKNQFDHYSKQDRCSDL
In the case of `COc1ccc(-c2cc(=O)c3cc([N+](C)(C)C)ccc3o2)cc1`, the pIC50 is 5.26.
For `CN(C)CCOc1cccc(-c2cc(=O)c3ccccc3o2)c1`, the pIC50 was 5.00.
In the case of `C[N+](C)(C)c1ccc2oc(-c3ccccc3)cc(=O)c2c1`, the negative logarithm of the IC50 (pIC50) was 4.98.

The same data set, now with this note: read-out: AchE inhibition IC50 (30′).
With `COc1ccc(-c2cc(=O)c3cc([N+](C)(C)C)ccc3o2)cc1`, the pIC50 is 5.22.
In the case of `CN(C)CCOc1cccc(-c2cc(=O)c3ccccc3o2)c1`, the pIC50 was 5.24.
Still for that read-out and setting: next, `C[N+](C)(C)c1ccc2oc(-c3ccccc3)cc(=O)c2c1`: 4.32.

The same data set, now with this note: time not given; read-out: AchE inhibition IC50.
`CN(C)C(=O)Oc1ccccc1-c1cc(=O)c2ccccc2o1`: the pIC50 was 5.58.
Still for that read-out and setting: the same measure for `CCN(C)C(=O)Oc1ccccc1-c1cc(=O)c2ccccc2o1`: 5.46.
On to `CN(C)C(=O)Oc1cccc(-c2cc(=O)c3ccccc3o2)c1`, for which the pIC50 is 5.85.
In the case of `CCN(C)C(=O)Oc1cccc(-c2cc(=O)c3ccccc3o2)c1`, the pIC50 was 4.39.

Tested on in a further data set: not given
Test: not given
Settings: not given
On to `COc1ccccc1-c1cc(=O)c2ccc(OC(=O)N(C)C)cc2o1`, for which the melting point lay in the range of 133.5 to 135 °C.
Same read-out and setting: next, `CN(C)C(=O)Oc1cccc(-c2cc(=O)c3cc(N)ccc3o2)c1`: 157 to 159 °C; `CN(C)C(=O)Oc1ccc2c(=O)cc(-c3ccccc3OC(=O)N(C)C)oc2c1`: 145.5 to 147 °C; `CN(C)C(=O)Oc1cccc(-c2cc(=O)c3cc(N(C)C)ccc3o2)c1`: 167 to 168 °C.
On the same count and under the same terms, the same measure for `CCOc1ccc2c(=O)cc(-c3ccccc3OC(=O)N(C)C)oc2c1`: 166 to 168 °C; for `CCOc1ccc2c(=O)cc(-c3ccccc3OC(=O)N(C)CC)oc2c1`: 91 to 93.5 °C.

What is called pIC50 is the IC50 on a negative log10 scale, so that one unit is a factor of ten. Usually melting point stands for the temperature of the solid-liquid transition.
